# Measurements from US20210246115A1 (Bioimics AB, priority 2017, published 2021).
# Where a name gives a salt, the structure may show the parent alone. Read-outs that look alike come from different tables or passages of the source.
# Legend:
# [1] = system: Escherichia coli (ATCC25922); test: MIC, broth microdilution (CLSI), Escherichia coli; settings: for MIC: Escherichia coli, ATCC25922, read-out: E. coli ATCC 25922 MIC, Table XIII
# [2] = system: Staphylococcus aureus subsp. aureus (ATCC29213); test: MIC, broth microdilution (CLSI), Staphylococcus aureus ATCC29213; type: cell-based; settings: for MIC: Staphylococcus aureus
# [3] = ATCC29213, read-out: S. aureus ATCC 29213 MIC, Table XIII
# [4] = ATCC29213, Table XIII, read-out: S. aureus ATCC 29213 MIC
SMILES,MIC [1],"MIC [2, 4]","MIC [2, 3]","E. coli ATCC 25922 MIC ([1]; Table XIII, hydrochloride salt)","S. aureus ATCC 29213 MIC ([2]; Table XIII, hydrochloride salt)"
"Cc1cccc(C(CCNC2CCNCC2)c2cn(CC3CCNCC3)c3ccccc23)c1 (stereo not shown) [Compound 315, N-(3-(1-(piperidin-4-ylmethyl)-1H-indol-3-yl)-3-(m-tolyl)propyl) piperichn-4-amine hydrochloride salt]",> 128 µg/mL,–,64 µg/mL,–,–
"Cc1cccc(C(CCNC2CCNCC2)c2cn(CC3CCOCC3)c3ccc(C#N)cc23)c1 (stereo not shown) [Compound 316, 3-(3-(piperidin-4-ylamino)-1-(m-tolyl)propyl)-1-((tetrahydro-2H-pyran-4-yl)methyl)-1H-indole-5-carbonitrile hydrochloride salt]",64 µg/mL,–,64 µg/mL,–,–
"Cc1cccc(C(CCNC2CCC(N)CC2)c2cn(C3CCNCC3)c3ccccc23)c1 (stereo not shown) [Compound 306, N1-(3-(1-(piperidin-4-yl)-1H-indol-3-yl)-3-(m-tolyl)propyl)cyclohexane-1,4-diamine hydrochloride salt]",> 128 µg/mL,–,16 µg/mL,–,–
"COC(=O)c1ccc2c(c1)c(CNCC1CCNCC1)cn2CC1CCCCC1 [Compound 304, methyl 1-(cyclohexylmethyl)-3-(((piperidin-4-ylmethyl)amino)methyl)-1H-indole-5-carboxylate hydrochloride salt]",> 128 µg/mL,–,64 µg/mL,–,–
"Cl.Cl.NCCCNCCC(c1ccncc1)c1cn(C2CC3CCC2C3)c2ccccc12 (stereo not shown) [Compound 338, N1-(3-(1-(bicyclo[2.2.1]heptan-2-yl)-1H-indol-3-yl)-3-(pyridin-4-yl)propyl)propane-1,3-diamine hydrochloride salt]",128 µg/mL,64 µg/mL,–,–,–
"Cl.Cl.c1ccc2c(c1)c(C(CCNC1CCNCC1)c1ccncc1)cn2C1CC2CCC1C2 (stereo not shown) [Compound 337, N-(3-(1-(bicyclo[2.2.1]heptan-2-yl)-1H-indol-3-yl)-3-(pyridin-4-yl)propyl)piperidin-4-amine hydrochloride salt]",64 µg/mL,32 µg/mL,–,–,–
"Cl.Cl.NCCCNCCC(c1cccnc1)c1cn(CC2CCCCC2)c2ccccc12 (stereo not shown) [Compound 321, N1-(3-(1-(cyclohexylmethyl)-1H-indol-3-yl)-3-(pyridin-3-yl)propyl)propane-1,3-diamine hydrochloride salt]",64 µg/mL,32 µg/mL,–,–,–
"Cc1cccc(C(CCNC2CCNCC2)c2cn(CC3CCNCC3)c3ccc(C#N)cc23)c1 (stereo not shown) [Compound 326, 3-(3-(piperidin-4-ylamino)-1-(m-tolyl)propyl)-1-(piperidin-4-ylmethyl)-1H-indole-5-carbonitrile hydrochloride salt]",128 µg/mL,–,32 µg/mL,–,–
"Cc1cccc(C(CCNC2CCC(N)CC2)c2cn(C3CCCCC3)c3ccccc23)c1 [Compound 392, (1S,4S)- -N1-(3-(1-cyclohexyl-1H-indol-3-yl)-3-(m-tolyl)propyl) cyclohexane-1,4-diamine hydrochloride salt]",–,–,–,8 µg/mL,8 µg/mL
"Cl.Cl.N[C@H]1CC[C@H](NCCC(c2ccncc2)c2cn(C3CCCCC3)c3ccccc23)CC1 (stereo partly shown) [Compound 340, (1r,4r)-N1-(3-(1-cyclohexyl-1H-indol-3-yl)-3-(pyridin-4-yl)propyl) cyclohexane-1,4-diamine hydrochloride salt]",128 µg/mL,64 µg/mL,–,–,–
"c1ccc2c(c1)c(CNCC1CCNCC1)cn2CC1CCCCC1 [Compound 300, 1-(1-(cyclohexylmethyl)-1H-indol-3-yl)-N-(piperidin-4-ylmethyl)methanamine hydrochloride salt]",128 µg/mL,–,128 µg/mL,–,–
"Cc1cccc(C(CCNCCCN)c2cn(CC3CCNCC3)c3ccccc23)c1 (stereo not shown) [Compound 314, N1-(3-(1-(piperidin-4-ylmethyl)-1H-indol-3-yl)-3-(m-tolyl)propyl)propane-1,3-diamine hydrochloride salt]",> 128 µg/mL,–,16 µg/mL,–,–
"Cl.Cl.NCCCNCCC(c1cn(C2CCCCC2)c2ccccc12)C1CC1 (stereo not shown) [Compound 422, N1-(3-(1-cyclohexyl-1H-indol-3-yl)-3-cyclopropylpropyl) propane-1,3-diamine hydrochloride salt]",16 µg/mL,32 µg/mL,–,–,–
"N[C@H]1CC[C@H](NCCC(c2ccncc2)c2cn(C3CC4CCC3C4)c3ccccc23)CC1 (stereo partly drawn) [Compound 336, (1R,4R)-N1-(3-(1-(bicyclo[2.2.1]heptan-2-yl)-1H-indol-3-yl)-3-(pyridin-4-yl)propyl)cyclohexane-1,4-diamine hydrochloride salt]",128 µg/mL,–,64 µg/mL,–,–
"O=C(O)c1ccc2c(c1)c(CNCC1CCNCC1)cn2CC1CCCCC1 [Compound 305, 1-(cyclohexylmethyl)-3-(((piperidin-4-ylmethyl)amino)methyl)-1H-indole-5-carboxylic acid hydrochloride salt]",> 128 µg/mL,–,> 128 µg/mL,–,–
"Cl.Cl.c1ccc2c(c1)c(C(CCNC1CCNCC1)c1ccncc1)cn2C1CCCCC1 (stereo not shown) [Compound 335, N-(3-(1-cyclohexyl-1H-indol-3-yl)-3-(pyridin-4-yl)propyl)piperidin-4-amine hydrochloride salt]",64 µg/mL,64 µg/mL,–,–,–
"Cc1cccc(C(CCNCC2OC(CO)C(O)C(O)C2O)c2cn(C3CCCCC3)c3ccccc23)c1 (stereo not shown) [Compound 391, 2-(((3-(1-cyclohexyl-1H-indol-3-yl)-3-(m-tolyl)propyl)amino)methyl)-6-(hydroxymethyl) tetrahydro-2H-pyran-3,4,5-triol]",128 µg/mL,–,64 µg/mL,–,–
"Cl.Cl.N#Cc1ccc2c(c1)c(C(CCNC1CCNCC1)C1CCCCC1)cn2C1CCCCC1 (stereo not shown) [Compound 406, 1-cyclohexyl-3-(1-cyclohexyl-3-(piperidin-4-ylamino)propyl)-1H-indole-5-carbonitrile salt]",8 µg/mL,8 µg/mL,–,–,–
"NC1CCC(NCCC(c2cccnc2)c2cn(C3CC4CCC3C4)c3ccccc23)CC1 (stereo not shown) [Compound 324, N1-(3-(1-(bicyclo[2.2.1]heptan-2-yl)-1H-indol-3-yl)-3-(pyridin-3-yl)propyl)cyclohexane-1,4-diamine hydrochloride salt]",64 µg/mL,–,32 µg/mL,–,–
"c1cncc(C(CCNC2CCNCC2)c2cn(C3CC4CCC3C4)c3ccccc23)c1 (stereo not shown) [Compound 325, hydrochloride salt]",64 µg/mL,–,64 µg/mL,–,–

# Continued, in another order:
MIC [1],"MIC [2, 4]",SMILES,"MIC [2, 3]","E. coli ATCC 25922 MIC ([1]; Table XIII, hydrochloride salt)","S. aureus ATCC 29213 MIC ([2]; Table XIII, hydrochloride salt)"
16 µg/mL,8 µg/mL,"Cc1cccc(C(CCNCCN)c2cn(C3CCCCC3)c3ccccc23)c1.Cl.Cl (stereo not shown) [Compound 347, N1-(3-(1-cyclohexyl-1H-indol-3-yl)-3-(m-tolyl)propyl)ethane-1,2-diamine hydrochloride salt]",–,–,–
> 128 µg/mL,16 µg/mL,"Cc1cccc(C(CCNCCCO)c2cn(C3CCCCC3)c3ccccc23)c1 (stereo not shown) [Compound 366, 3-((3-(1-cyclohexyl-1H-indol-3-yl)-3-(m-tolyl)propyl)amino) propan-1-ol]",–,–,–
8 µg/mL,8 µg/mL,"Cc1cccc(CC(CCNCCCN)c2cn(C3CCCCC3)c3ccccc23)c1.Cl.Cl (stereo not shown) [Compound 419, N1-(3-(1-cyclohexyl-1H-indol-3-yl)-4-(m-tolyl)butyl)propane-1,3-diamine hydrochloride salt]",–,–,–
> 128 µg/mL,128 µg/mL,"Cc1cccc(C(CCNCCCN)c2cn(C3CCCCC3)c3ccc(C(=O)O)cc23)c1 (stereo not shown) [Compound 387, 3-(3-((3-aminopropyl)amino)-1-(m-tolyl)propyl)-1-cyclohexyl-1H-indole-5-carboxylic acid compound with 2,2,2-trifluoroacetaldehyde (1:2)]",–,–,–
128 µg/mL,32 µg/mL,"Cl.Cl.NCCCNCCC(c1ccncc1)c1cn(C2CCCCC2)c2ccccc12 (stereo not shown) [Compound 339, N1-(3-(1-cyclohexyl-1H-indol-3-yl)-3-(pyridin-4-yl)propyl)propane-1,3-diamine hydrochloride salt]",–,–,–
> 128 µg/mL,64 µg/mL,"Cl.Cl.NC1CCC(NCCC(c2cccnc2)c2cn(C3CCCCC3)c3ccccc23)CC1 (stereo not shown) [Compound 330, N1-(3-(1-cyclohexyl-1H-indol-3-yl)-3-(pyridin-3-yl)propyl)cyclohexane-1,4-diamine hydrochloride salt]",–,–,–
> 128 µg/mL,16 µg/mL,"Cc1cccc(C(CCOC2OC(CO)C(O)C(O)C2O)c2cn(C3CCCCC3)c3ccccc23)c1 (stereo not shown) [Compound 388, 2-(3-(1-cyclohexyl-1H-indol-3-yl)-3-(m-tolyl)propoxy)-6-(hydroxymethyl) tetrahydro-2H-pyran-3,4,5-triol]",–,–,–
> 128 µg/mL,8 µg/mL,"Cc1cccc(C(CCOCCCN(C)C)c2cn(C3CCCCC3)c3ccccc23)c1 (stereo not shown) [Compound 364, 3-(3-(1-cyclohexyl-1H-indol-3-yl)-3-(m-tolyl)propoxy)-N,N-dimethylpropan-1-amine salt]",–,–,–
8 µg/mL,16 µg/mL,"Cc1ccccc1C(CCNCCCN)c1cn(C2CCCC2)c2ccccc12.Cl.Cl (stereo not shown) [Compound 342, N1-(3-(1-cyclopentyl-1H-indol-3-yl)-3-(o-tolyl)propyl)propane-1,3-diamine hydrochloride salt]",–,–,–
8 µg/mL,8 µg/mL,"Cl.Cl.NCCCNCCC(c1cncc2ccccc12)c1cn(C2CCCCC2)c2ccccc12 (stereo not shown) [Compound 369, N1-(3-(1-cyclohexyl-1H-indol-3-yl)-3-(isoquinolin-4-yl)propyl)propane-1,3-diamine hydrochloride]",–,–,–
64 µg/mL,32 µg/mL,"Cl.Cl.c1cncc(C(CCNC2CCNCC2)c2cn(C3CCCCC3)c3ccccc23)c1 (stereo not shown) [Compound 329, N-(3-(1-cyclohexyl-1H-indol-3-yl)-3-(pyridin-3-yl)propyl)piperidin-4-amine hydrochloride salt]",–,–,–
> 128 µg/mL,> 128 µg/mL,"Cc1cccc(C(CCN(C#N)C2CCC(NC(N)=O)CC2)c2cn(C3CCCCC3)c3ccccc23)c1 [Compound 361, 1-(((1S,4S)-4-(N-(3-(1-cyclohexyl-1H-indol-3-yl)-3-(m-tolyl)propyl)cyanamido)cyclohexyl)urea salt]",–,–,–
